Assay results reported in US11045449B2, “3-(5-fluoroindolyl)-4-arylmaleimide compounds and their use in tumor treatment” (JOHANNES GUTENBERG-UNIVERSITÄT MAINZ, priority 2015, dated 2021).
Where a name gives a salt, the structure may show the parent alone. Each block holds one compound with its values, some of them ahead of it.

What was measured:
[1] = molecular target: GSK-3β (Homo sapiens, UniProt P49841); test: KinaseProfiler protein kinase inhibition, GSK-3β; format: biochemical
Procedure: (§1) The effect of test compounds on the activity of the protein kinases GSK-3β, VEGFR-2 and FLT-3 was evaluated based on half maximal inhibitory concentration (IC50) values determined by Eurofins Pharma Discovery Services UK Limited, Gemini Crescent, Dundee Technology Park, Dundee, DD2 1SW (KinaseProfiler™). Detailed information can be found at: http://www.eurofins.com/pharma-services/pharma-discovery-services/services/in-vitro-pharmacology/kinases/biochemical.aspx. The assays are also described in Biochem. J. (2013) 451, 313-328.

[2] = tested on: HT-29 human colon adenocarcinoma cells; test: MTT assay, antiproliferative activity; format: cell-based; conditions: HT-29 cells, 3 days exposure, FIG. 3
Description: Each experiment was done in triplicate.

[3] = molecular target: T1, FLT-3 (Homo sapiens, UniProt P36888); test: KinaseProfiler protein kinase inhibition, FLT-3; format: biochemical
T1 construct: purchased Eurofins Pharma Discovery Services UK Limited (KinaseProfiler)
T1 sequence (P36888 27-993): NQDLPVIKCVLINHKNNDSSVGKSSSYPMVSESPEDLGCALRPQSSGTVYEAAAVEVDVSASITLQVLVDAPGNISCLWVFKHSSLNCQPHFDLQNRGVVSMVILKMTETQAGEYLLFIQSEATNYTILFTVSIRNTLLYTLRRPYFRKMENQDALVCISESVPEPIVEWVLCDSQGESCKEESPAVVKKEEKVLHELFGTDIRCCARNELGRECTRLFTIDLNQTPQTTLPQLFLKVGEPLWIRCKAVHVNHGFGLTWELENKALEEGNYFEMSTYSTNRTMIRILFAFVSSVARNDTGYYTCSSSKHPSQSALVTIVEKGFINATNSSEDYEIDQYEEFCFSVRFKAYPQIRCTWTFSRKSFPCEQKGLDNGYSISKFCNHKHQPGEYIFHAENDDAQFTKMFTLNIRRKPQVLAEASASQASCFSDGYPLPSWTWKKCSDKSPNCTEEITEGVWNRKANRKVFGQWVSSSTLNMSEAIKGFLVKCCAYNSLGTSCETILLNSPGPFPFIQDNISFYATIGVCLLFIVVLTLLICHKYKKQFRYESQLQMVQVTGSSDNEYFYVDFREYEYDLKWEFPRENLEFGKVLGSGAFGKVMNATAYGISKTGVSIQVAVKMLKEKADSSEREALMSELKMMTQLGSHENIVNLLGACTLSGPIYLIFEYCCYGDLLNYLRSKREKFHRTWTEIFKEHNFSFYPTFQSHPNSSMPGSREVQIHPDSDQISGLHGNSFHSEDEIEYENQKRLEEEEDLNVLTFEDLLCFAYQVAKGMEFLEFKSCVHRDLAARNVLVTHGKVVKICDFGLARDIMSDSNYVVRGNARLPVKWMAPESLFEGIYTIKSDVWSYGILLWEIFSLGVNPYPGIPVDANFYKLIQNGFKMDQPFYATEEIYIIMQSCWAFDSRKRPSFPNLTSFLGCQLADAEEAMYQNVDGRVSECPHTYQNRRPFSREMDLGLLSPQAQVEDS
Procedure: as §1

[4] = molecular target: T2, VEGFR-2 (Homo sapiens, UniProt P35968); test: KinaseProfiler protein kinase inhibition, VEGFR-2; format: biochemical
T2 construct: purchased Eurofins Pharma Discovery Services UK Limited (KinaseProfiler)
T2 sequence (P35968 20-1356): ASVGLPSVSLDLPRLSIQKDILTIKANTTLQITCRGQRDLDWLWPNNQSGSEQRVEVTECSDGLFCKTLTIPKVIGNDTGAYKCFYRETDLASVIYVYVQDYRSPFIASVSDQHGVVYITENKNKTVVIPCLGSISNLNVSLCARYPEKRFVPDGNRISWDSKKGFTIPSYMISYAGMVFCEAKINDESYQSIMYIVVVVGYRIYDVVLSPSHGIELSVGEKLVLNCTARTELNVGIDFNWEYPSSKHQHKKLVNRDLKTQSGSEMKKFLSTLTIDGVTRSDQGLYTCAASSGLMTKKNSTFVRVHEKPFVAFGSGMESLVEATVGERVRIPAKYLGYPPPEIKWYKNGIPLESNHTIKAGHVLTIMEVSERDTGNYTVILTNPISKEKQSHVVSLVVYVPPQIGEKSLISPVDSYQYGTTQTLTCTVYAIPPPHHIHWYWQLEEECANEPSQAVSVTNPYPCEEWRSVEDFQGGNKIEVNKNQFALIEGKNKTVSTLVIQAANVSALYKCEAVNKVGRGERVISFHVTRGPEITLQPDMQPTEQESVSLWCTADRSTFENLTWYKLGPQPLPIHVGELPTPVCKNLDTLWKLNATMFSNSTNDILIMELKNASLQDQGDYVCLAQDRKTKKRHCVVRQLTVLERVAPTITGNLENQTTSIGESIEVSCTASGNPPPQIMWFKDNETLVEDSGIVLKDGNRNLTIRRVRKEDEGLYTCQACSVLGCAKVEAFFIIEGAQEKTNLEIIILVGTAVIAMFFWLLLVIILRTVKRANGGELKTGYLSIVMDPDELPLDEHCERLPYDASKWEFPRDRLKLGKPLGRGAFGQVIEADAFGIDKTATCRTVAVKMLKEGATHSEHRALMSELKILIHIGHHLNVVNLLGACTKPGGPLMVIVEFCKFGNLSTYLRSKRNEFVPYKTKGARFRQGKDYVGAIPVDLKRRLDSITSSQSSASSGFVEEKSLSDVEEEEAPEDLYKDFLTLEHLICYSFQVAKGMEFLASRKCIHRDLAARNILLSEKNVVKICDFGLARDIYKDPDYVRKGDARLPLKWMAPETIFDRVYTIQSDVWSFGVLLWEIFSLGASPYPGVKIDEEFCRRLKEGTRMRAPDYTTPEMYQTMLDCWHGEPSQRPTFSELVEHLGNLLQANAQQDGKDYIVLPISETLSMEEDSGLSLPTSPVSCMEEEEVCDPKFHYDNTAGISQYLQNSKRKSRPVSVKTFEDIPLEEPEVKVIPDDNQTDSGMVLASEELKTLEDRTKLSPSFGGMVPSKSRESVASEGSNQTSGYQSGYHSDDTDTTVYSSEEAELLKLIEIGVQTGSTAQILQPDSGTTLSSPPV
Description: Detailed information can be found at: http://www.eurofins.com/pharma-services/pharma-discovery-services/services/in-vitro-pharmacology/kinases/biochemical.aspx. The assays are also described in Biochem. J. (2013) 451, 313-328.

[5] = metabolic conversion in rat liver microsomes; format: in vitro ADME; conditions: 40 μM compound, 37° C., pH 7.4, RP-HPLC-MS/MS
Procedure: In a further experiment the metabolic conversion of compounds (Ia) and (IIa) was evaluated according to the following procedure:
The test compounds were incubated in the reaction mixture given below with rat liver microsomes (Corning). For this purpose the reaction mixture (components 1-5, see below) was preincubated for 10 minutes at 37° C. The reaction was started with the addition of 10 μl of the test compound followed by incubation at 37° C. for 0-300 minutes, respectively. At each time point, 50 μl of the mixture were removed, added to 250 μl of ice cold acetonitrile and vortexed immediately. After centrifugation, the acetonitrile solution was analyzed by RP-HPLC-MS/MS system.
1. Magnesiumchloride hexahydrate 50 μl
2. Glucose-6-phosphate 50 μl
4. Glucose-6-phosphate-dehydrogenase: 10 μl
6. Compounds: 40 μM (10 μl of 4 mM solution in ethanol)
Total volume: 1000 μl in 0.1 M Trizma-buffer (pH 7.4 at 37° C.)
Acquity UPLC®-Quattro Premier XE (MS) system by Waters
Column: BEH C18, 2.1×50 mm, 1.2 μm pore diameter, Waters
Solvent A: H2O, NH4-formiate 2 mM+0.1% formic acid
Solvent B: Methanol, NH4-formiate 2 mM+0.1% formic acid
Flow regime: from 70% solvent A/30% solvent B to 100% Solvent A in 2.4 minutes, then 70% solvent A/30% solvent B for 0.8 minutes.

GSK-3β, sequence (P49841 whole entry): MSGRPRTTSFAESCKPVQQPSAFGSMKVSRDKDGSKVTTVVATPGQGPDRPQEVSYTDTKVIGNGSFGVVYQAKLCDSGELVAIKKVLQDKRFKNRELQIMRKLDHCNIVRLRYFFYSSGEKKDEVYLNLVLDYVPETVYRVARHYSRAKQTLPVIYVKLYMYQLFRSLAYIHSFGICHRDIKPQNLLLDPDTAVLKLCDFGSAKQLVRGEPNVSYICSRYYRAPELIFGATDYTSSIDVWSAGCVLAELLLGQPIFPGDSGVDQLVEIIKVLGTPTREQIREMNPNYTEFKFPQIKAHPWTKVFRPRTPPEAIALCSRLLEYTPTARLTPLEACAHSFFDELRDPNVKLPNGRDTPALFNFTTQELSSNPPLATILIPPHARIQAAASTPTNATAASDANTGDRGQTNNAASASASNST

IC50 [1]: 2 nM
Compound: COc1cc(C2=C(c3cn(CCCO)c4ccccc34)C(=O)NC2=O)cc(OC)c1OC [IIe]

Compound: COc1cc(C2=C(c3c[nH]c4ccc(F)cc34)C(=O)NC2=O)cc(OC)c1O [Id, 3-(5-fluoro-1H-indol-3-yl)-4-(4-hydroxy-3,5-dimethoxyphenyl)-maleimide]
antiproliferative activity (viability) [2]: higher activity as compared to (IId)

melting point: 233 °C
Compound: COc1cc(C2=C(c3cn(CCO)c4ccc(F)cc34)C(=O)NC2=O)cc(OC)c1O [Ic, 3-(5-fluoro-1-(2-hydroxyethyl)-1H-indol-3-yl)-4-(4-hydroxy-3,5-dimethoxyphenyl)-maleimide]

IC50 [3]: 66 nM | IC50 [4]: 79 nM
Compound: COc1cc(C2=C(c3cn(CCO)c4ccc(F)cc34)C(=O)NC2=O)cc(OC)c1OC [Ib, 3-(5-fluoro-1-(2-hydroxyethyl)-1H-indol-3-yl)-4-(3,4,5-trimethoxyphenyl)-maleimide]

time until largely metabolized [5]: 1 h
Compound: COc1cc(C2=C(c3cn(CCOC(=O)C(N)CC(C)C)c4ccc(F)cc34)C(=O)NC2=O)cc(OC)c1OC (stereo not shown) [Ia, 2-(3-(2,5-Dioxo-4-(3,4,5-trimethoxyphenyl)-2,5-dihydro-1H-pyrrol-3-yl)-5-fluoro-1H-indol-1-yl)-ethyl-2-amino-4-methylpentanoate]

melting point: 180 °C
Compound: COc1cc(C2=C(c3cn(CCOC(=O)C(N)CC(C)C)c4ccc(F)cc34)C(=O)NC2=O)cc(OC)c1OC (stereo not shown) (as salt: salt) [Ia, 2-(3-(2,5-Dioxo-4-(3,4,5-trimethoxyphenyl)-2,5-dihydro-1H-pyrrol-3-yl)-5-fluoro-1H-indol-1-yl)-ethyl-2-amino-4-methylpentanoate]

time until largely metabolized [5]: 2 h
Compound: COc1cc(C2=C(c3cn(CCOC(=O)C(N)CC(C)C)c4ccccc34)C(=O)NC2=O)cc(OC)c1OC (stereo not shown) [IIa, reference compound]

IC50 [3]: 84 nM | IC50 [4]: 168 nM
Compound: COc1cc(C2=C(c3cn(CCCO)c4ccc(F)cc34)C(=O)NC2=O)cc(OC)c1OC [If, 3-(5-fluoro-1-(3-hydroxypropyl)-1H-indol-3-yl)-4-(3,4,5-trimethoxyphenyl)-maleimide]
